≈ marks a conversion by molar mass, not a printed value.
Test system: Mycobacterium tuberculosis
Assay: Antimycobacterial activity against isoniazid-resistant Mycobacterium tuberculosis H37Rv ATCC 27294 using alamar blue staining by broth microdilution assay
Type: functional

Row | SMILES | MIC [µg/mL]
1 | Cc1cc(C2=NN(c3ccccc3)C(c3ccc(F)cc3)C2)ccc1O (configuration not stated) | 0.62 (≈ 1.79 µM)
2 | NNC(=O)c1ccncc1 [ISONIAZID] | 0.63 (≈ 4.59 µM)
3 | COc1ccc(C2CC(c3ccc(O)c(C)c3)=NN2c2ccccc2)cc1OC (configuration not stated) | 1.16 (≈ 2.99 µM)
4 | COc1cc(C2CC(c3ccc(O)c(C)c3)=NN2c2ccccc2)cc(OC)c1OC (configuration not stated) | 1.86 (≈ 4.44 µM)
5 | COc1ccc(C2CC(c3ccc(O)c(C)c3)=NN2c2ccccc2)cc1 (configuration not stated) | 1.45 (≈ 4.05 µM)
6 | Cc1cc(C2=NN(c3ccccc3)C(c3ccccc3)C2)ccc1O (configuration not stated) | 1.6 (≈ 4.87 µM)
7 | Cc1cc(C2=NN(c3ccccc3)C(c3ccc(N(C)C)cc3)C2)ccc1O (configuration not stated) | 0.84 (≈ 2.26 µM)
8 | Cc1cc(C2=NN(c3ccccc3)C(c3c(Cl)cccc3Cl)C2)ccc1O (configuration not stated) | 0.92 (≈ 2.32 µM)
9 | Cc1cc(C2=NN(c3ccccc3)C(c3ccccc3Cl)C2)ccc1O (configuration not stated) | 1 (≈ 2.76 µM)
10 | Cc1cc(C2=NN(c3ccccc3)C(c3ccc(Cl)cc3)C2)ccc1O (configuration not stated) | 1.24 (≈ 3.42 µM)
11 | Cc1cc(C2=NN(c3ccccc3)C(c3ccco3)C2)ccc1O (configuration not stated) | 0.81 (≈ 2.54 µM)
12 | Cc1cc(C2=NN(c3ccccc3)C(c3cccc([N+](=O)[O-])c3)C2)ccc1O (configuration not stated) | 1.96 (≈ 5.25 µM)

Reference: ChEMBL document CHEMBL3045115, “Synthesis and antimycobacterial activity of novel 4-[5-(substituted phenyl)-1-phenyl-4,5-dihydro-1H-3-pyrazolyl]-2-methylphenol derivatives” (2006)
